The test system of experiment [1] is MDA-MB-468. As to the kind of experiment: TUNEL analysis of apoptosis. Type of experiment: cell-based, human. The following applies: 48 h. The text has this: (§1) FIGS. 7A-7C. TUNEL analysis of PLATINUM-401-mediated apoptosis. (FIG. 7A) Normal NIH3T3 fibroblasts and their v-Src-transformed counterparts (NIH3T3/v-Src), human breast carcinoma cell lines (MDA-MB-453, MDA-MB-435, MDA-MB-468, and MDA-MB-231), human non-small cell lung cancer cell line (A549), human prostate cancer cell line (DU145), multiple myeloma 5TGM1 (mouse) and U266 (human) cell lines, mouse melanoma cell line (B16) and human pancreatic cancer cell line (Panc1) were all treated with or without PLATINUM-401 for 48 h and analyzed by TUNEL for DNA damage. For each cell line, the activated Stat3 status is indicated as (−), no constitutively-active Stat3 and (+), constitutively-active Stat3 (see FIG. 5A). Data are representative of 3 independent determinations; (FIG. 7B) Human breast cancer cell lines (MDA-MB-453, MDA-MB-468 and MDA-MB-435) were transfected with or without Stat3β or Stat3 antisense (Stat3AS), or were treated with or without Stat3 peptidomimetic inhibitor, ISS 610 (1 mM) or PLATINUM-401 (5 μM)). Forty-eight hours afterwards, cells were harvested and processed for TUNEL analysis; (FIG. 7C) The viral Src-transformed NIH3T3/v-Src fibroblasts were transfected with or without wild-type Stat3 (pRc/CMV Stat3 Flag) and treated with or without 5 μM PLATINUM-401 for 36 h. Cells were subsequently harvested for nuclear extracts preparation and Stat3 DNA-binding assay in vitro with EMSA analysis (left panel), or were processed for TUNEL analysis (right panel).
(§2) Cell proliferation and TUNEL assays—Proliferating cells were first treated with or without PLATINUM-401 for up to 48 h. A portion of cells were harvested for BrdU incorporation following the manufacturer's (BD Biosciences Pharmingen, San Diego, Calif.) instructions and analyzed by flow cytometry. Harvested cells were also analyzed for apoptosis via detection of TdT-mediated dUTP nick-end labeling (TUNEL) assay using Apoptosis Detection Systems Fluorescein according to the manufacturer's (Roche, Indianapolis, Ind.) instructions. Oligonucleotides and plasmids Transfections. The Stat3 antisense (5′-[…]-3′) (SEQ ID NO:3) or control mismatch oligonucleotides (5′-[…]-3′) (SEQ ID NO:4) were synthesized using phosphorothioate chemistry and were synthesized with 2′-Omethoxyethyl modification of the five terminal nucleotides (underlined; (Mora et al., 2002; Karras et al., 2000)) to increase stability. Transfections of Stat3AS and plasmids were carried out with Lipofectamine 2000 (LF) according to the manufacturer's instructions (Invitrogen, Carlsbad, Calif.). Briefly, cells were seeded at 1-2×10^6 cells/10-cm tissue-culture plates 18 h before transfection. Immediately before transfection, cells were washed once with PBS. Cells were transfected with luciferase reporters (4 μg) in the presence or absence of v-Src (4 μg), or were transfected with Stat3β (4 μg) or pRC/CMV Stat3 Flag (4 μg). Stat3AS transfections were carried out LF alone, or with LF/Stat3 antisense oligonucleotides, or LF/Stat3 mismatch oligonucleotides (final concentration of the oligonucleotides was 250 nM). After 2-3 h, the transfection medium was aspirated and cells washed with PBS before fresh medium added containing 10% FBS was added.
(§3) Cells were analyzed for DNA-strand breaks by TUNEL staining. […] The incidence of apoptosis correlated with the prevalence of constitutively-active Stat3 in malignant cells (FIG. 7, lower panel). Moreover, the incidence of apoptosis by PLATINUM-401 in breast cancer cell lines (MDA-MB-468 and MDA-MB-435) harboring constitutively-active Stat3 compares favorably to that induced by other previously investigated Stat3 inhibitory approaches, such as Stat3β (Garcia et al., 2001), Stat3 antisense (Stat3AS) (Mora et al., 2002), peptidomimetic inhibitor of Stat3 (ISS 610) (FIG. 7B) (Turkson et al., 2004c), and contrasts with the absence of apoptosis in breast cancer cell line, MDA-MB-453 that lacks constitutively-active Stat3. […]

The test system of experiment [2] is MDA-MB-435. Description: TUNEL analysis of apoptosis. Type of experiment: cell-based, human. The following applies: 48 h.
Text: as §1, §2, §3

For experiment [3], the system named is A549. As to the kind of experiment: TUNEL analysis of apoptosis. Type of experiment: cell-based, human. The following applies: 48 h.
Text: as §1, §2, §3

Experiment [4] has as its system hSIE oligonucleotide probe. As to the kind of experiment: Pre-treatment of hSIE oligonucleotide with compound, then Stat3 binding by EMSA. The following applies: oligonucleotide treated 30 min, then radiolabeled. As to the method:
To investigate the possibility that PLATINUM-401 might alter the integrity of the hSIE oligonucleotide probe that is used in the DNA-binding activity studies and thereby inhibit Stat3 binding, the oligonucleotide was first treated with PLATINUM-401 for 30 min. Pre-treated oligonucleotide was then radiolabeled and tested for its ability to bind to activated Stat3 in vitro. […] While PLATINUM-401 was in direct contact with the oligonucleotide probe during the pre-treatment stage and prior to radiolabeling of the probe, it is unlikely to have been retained with the oligonucleotide probe following purification of the probe and therefore would not have come into contact with Stat3 protein at the time of the in vitro DNA-binding assay.

Experiment [5] deals with MDA-MB-453. Description: Cell cycle analysis by BrdU labeling and flow cytometry. The following applies: no constitutively-active Stat3. Type of experiment: cell-based, human. The method, then:
(§4) FIG. 6. Analysis of relative cellular DNA content using BrdU labeling and flow cytometry. Relative DNA content of human breast cancer cell lines following treatment with or without PLATINUM-401 was analyzed by BrdU incorporation and flow cytometry. The population of cells determined from the relative DNA content is shown in each panel for each treatment condition. Results are the representative of 3 independent determinations.
as §2, with “Stat3AS transfections were carried out LF alone, or with LF/Stat3 antisense oligonucleotides, or LF/Stat3 mismatch oligonucleotides (final concentration of the oligonucleotides was 250 nM). After 2-3 h, the transfection medium was aspirated and cells washed with PBS before fresh medium added containing 10% FBS was added.” left out
(§5) The inventors further examined the biological effects of PLATINUM-401 and determined whether any changes might correlate with the inhibition of constitutively-active Stat3. […]

Experiment [6] deals with MDA-MB-231. The experiment is described as above. The format is cell-based, human. As to the method: as §4
as §2, with “Stat3AS transfections were carried out LF alone, or with LF/Stat3 antisense oligonucleotides, or LF/Stat3 mismatch oligonucleotides (final concentration of the oligonucleotides was 250 nM). After 2-3 h, the transfection medium was aspirated and cells washed with PBS before fresh medium added containing 10% FBS was added.” left out
as §5

Experiment [7] concerns the target T1, inactive Stat3 monomer (Homo sapiens, UniProt P40763).
T1 construct: made in house; host or cells: Sf-9 insect cells infected with recombinant baculovirus
Description: Inactive STAT monomer added to activated Stat3 before EMSA (titration of compound). Type of experiment: binding. The following applies: monomer added to activated Stat3, pre-incubated with compound 30 min. The text has this: The interaction of PLATINUM-401 with Stat3 protein is independent of the activation status of the protein.

This note sets out measurements from patent publication US11571418B2, “Platinum compounds that inhibit constitutive STAT3 signaling and induce cell cycle arrest and apoptosis of malignant cells” (H. LEE MOFFITT CANCER CENTER AND RESEARCH INSTITUTE, INC., priority 2011, dated 2023).

T1 sequence (P40763 whole entry): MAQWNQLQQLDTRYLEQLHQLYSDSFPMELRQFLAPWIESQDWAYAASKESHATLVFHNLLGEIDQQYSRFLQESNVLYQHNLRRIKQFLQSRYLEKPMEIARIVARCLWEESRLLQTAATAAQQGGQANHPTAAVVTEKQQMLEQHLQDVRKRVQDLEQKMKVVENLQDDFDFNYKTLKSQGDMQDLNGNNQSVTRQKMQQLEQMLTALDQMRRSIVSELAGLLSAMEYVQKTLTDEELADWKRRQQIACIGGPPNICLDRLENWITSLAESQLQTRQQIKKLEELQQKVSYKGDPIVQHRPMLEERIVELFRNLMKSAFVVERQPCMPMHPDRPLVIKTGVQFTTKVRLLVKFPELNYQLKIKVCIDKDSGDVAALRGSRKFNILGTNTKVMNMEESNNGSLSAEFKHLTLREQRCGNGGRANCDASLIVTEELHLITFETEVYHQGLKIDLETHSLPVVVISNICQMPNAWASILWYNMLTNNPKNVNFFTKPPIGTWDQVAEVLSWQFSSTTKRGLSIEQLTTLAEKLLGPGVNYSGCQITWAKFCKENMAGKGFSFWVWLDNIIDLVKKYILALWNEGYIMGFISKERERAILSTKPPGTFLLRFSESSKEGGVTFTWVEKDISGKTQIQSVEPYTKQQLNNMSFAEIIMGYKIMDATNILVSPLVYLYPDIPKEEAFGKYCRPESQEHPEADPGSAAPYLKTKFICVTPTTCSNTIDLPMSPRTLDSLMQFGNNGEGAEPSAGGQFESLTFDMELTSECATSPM

On to `CC(O)CN1CCN(CC(C)O)CC1` (centres unmarked) [PLATINUM-401], for which the TUNEL staining entry in experiment [1], in experiment [2] and in experiment [3] was “Significant TUNEL staining” throughout. In addition, the “effect of pre-treatment of hSIE oligonucleotide on its ability to bind activated Stat3” value in experiment [4] is “no observable effect”. For the same compound, the cell cycle profile result in experiment [5] is listed as “no significant change”. In addition, the cell cycle change entry in experiment [6] (BrdU, flow cytometry) was “arrested at G0/G1 phase”. Also, the S phase cells entry in experiment [6] (persists up to 48 h) is on record as “significant decrease”. Moreover, the “interaction with inactive Stat3 monomer” value in experiment [7] is on record as “interacts”.
